From BindingDB's records for doi:10.1007/s00213-009-1521-8 (Case Western Reserve University, 2009)

Tests used:
[1] = molecular target: 5-hydroxytryptamine receptor 1D (Homo sapiens, UniProt P28221)
[2] = molecular target: Alpha-1B adrenergic receptor (Homo sapiens, UniProt P35368)
[3] = molecular target: Alpha-2A adrenergic receptor (Homo sapiens, UniProt P08913)
[4] = molecular target: Sodium-dependent noradrenaline transporter (Homo sapiens, UniProt P23975)
D(4) dopamine receptor = D(4) dopamine receptor (Homo sapiens, UniProt P21917)
[5] = molecular target: Prostaglandin E2 receptor EP3 subtype (Homo sapiens, UniProt P43115)
[6] = molecular target: Sigma non-opioid intracellular receptor 1 (Rattus norvegicus, UniProt Q9R0C9)
[7] = molecular target: Muscarinic acetylcholine receptor M3 (Homo sapiens, UniProt P20309)
D(1B) dopamine receptor = D(1B) dopamine receptor (Homo sapiens, UniProt P21918)
Histamine H4 receptor = Histamine H4 receptor (Homo sapiens, UniProt Q9H3N8)
[8] = molecular target: Kappa-type opioid receptor (Homo sapiens, UniProt P41145)
[9] = molecular target: Delta-type opioid receptor (Homo sapiens, UniProt P41143)
[10] = molecular target: Muscarinic acetylcholine receptor M4 (Homo sapiens, UniProt P08173)
[11] = molecular target: Alpha-2C adrenergic receptor (Homo sapiens, UniProt P18825)
[12] = molecular target: Prostaglandin E2 receptor EP4 subtype (Homo sapiens, UniProt P35408)
[13] = molecular target: 5-hydroxytryptamine receptor 1E (Homo sapiens, UniProt P28566)
[14] = molecular target: 5-hydroxytryptamine receptor 1A (Homo sapiens, UniProt P08908)
[15] = molecular target: Alpha-1A adrenergic receptor (Homo sapiens, UniProt P35348)
[16] = molecular target: 5-hydroxytryptamine receptor 3A (Homo sapiens, UniProt P46098)
[17] = molecular target: Muscarinic acetylcholine receptor M1 (Homo sapiens, UniProt P11229)
[18] = molecular target: 5-hydroxytryptamine receptor 6 (Homo sapiens, UniProt P50406)
[19] = molecular target: Beta-1 adrenergic receptor (Homo sapiens, UniProt P08588)
[20] = molecular target: Beta-2 adrenergic receptor (Homo sapiens, UniProt P07550)
[21] = molecular target: Alpha-1D adrenergic receptor (Homo sapiens, UniProt P25100)
Histamine H1 receptor = Histamine H1 receptor (Homo sapiens, UniProt P35367)
[22] = molecular target: 5-hydroxytryptamine receptor 5A (Homo sapiens, UniProt P47898)
Mu-type opioid receptor = Mu-type opioid receptor (Homo sapiens, UniProt P35372)
[23] = molecular target: 5-hydroxytryptamine receptor 2C (Homo sapiens, UniProt P28335)
[24] = molecular target: Muscarinic acetylcholine receptor M2 (Homo sapiens, UniProt P08172)
[25] = molecular target: Gamma-aminobutyric acid receptor subunit alpha-1 (Rattus norvegicus, UniProt P62813)
[26] = molecular target: 5-hydroxytryptamine receptor 1B (Homo sapiens, UniProt P28222)
[27] = molecular target: Beta-3 adrenergic receptor (Homo sapiens, UniProt P13945)
Histamine H2 receptor = Histamine H2 receptor (Homo sapiens, UniProt P25021)
[28] = molecular target: Muscarinic acetylcholine receptor M5 (Homo sapiens, UniProt P08912)
D(1A) dopamine receptor = D(1A) dopamine receptor (Homo sapiens, UniProt P21728)
Chain of D(1A) dopamine receptor (P21728 whole entry): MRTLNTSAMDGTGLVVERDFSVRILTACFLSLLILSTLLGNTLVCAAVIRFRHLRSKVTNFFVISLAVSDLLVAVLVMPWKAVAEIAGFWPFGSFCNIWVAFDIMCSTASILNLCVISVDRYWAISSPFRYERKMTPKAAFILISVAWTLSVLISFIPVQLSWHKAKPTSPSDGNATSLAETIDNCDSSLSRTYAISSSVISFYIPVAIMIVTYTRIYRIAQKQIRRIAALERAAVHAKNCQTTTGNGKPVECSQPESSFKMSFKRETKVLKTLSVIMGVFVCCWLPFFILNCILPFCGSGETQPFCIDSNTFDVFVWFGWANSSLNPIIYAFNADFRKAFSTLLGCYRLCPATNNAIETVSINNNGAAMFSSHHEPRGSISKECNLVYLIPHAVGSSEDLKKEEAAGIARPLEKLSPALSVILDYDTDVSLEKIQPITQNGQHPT

Chain of Alpha-1B adrenergic receptor (P35368 whole entry): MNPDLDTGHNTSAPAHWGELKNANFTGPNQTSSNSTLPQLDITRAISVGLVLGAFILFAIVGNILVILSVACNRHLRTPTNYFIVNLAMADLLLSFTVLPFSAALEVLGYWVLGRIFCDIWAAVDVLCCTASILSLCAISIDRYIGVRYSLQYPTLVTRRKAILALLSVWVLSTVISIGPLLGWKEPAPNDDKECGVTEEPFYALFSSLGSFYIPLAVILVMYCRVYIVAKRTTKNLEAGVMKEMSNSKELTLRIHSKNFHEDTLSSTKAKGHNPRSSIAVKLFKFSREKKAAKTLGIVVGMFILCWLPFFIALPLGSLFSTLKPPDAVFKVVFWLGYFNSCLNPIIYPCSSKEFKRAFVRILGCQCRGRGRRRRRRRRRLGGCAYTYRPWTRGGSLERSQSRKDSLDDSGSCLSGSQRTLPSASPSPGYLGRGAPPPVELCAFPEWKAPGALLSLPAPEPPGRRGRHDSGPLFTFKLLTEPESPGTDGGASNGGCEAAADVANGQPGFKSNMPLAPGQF
Chain of Beta-3 adrenergic receptor (P13945 whole entry): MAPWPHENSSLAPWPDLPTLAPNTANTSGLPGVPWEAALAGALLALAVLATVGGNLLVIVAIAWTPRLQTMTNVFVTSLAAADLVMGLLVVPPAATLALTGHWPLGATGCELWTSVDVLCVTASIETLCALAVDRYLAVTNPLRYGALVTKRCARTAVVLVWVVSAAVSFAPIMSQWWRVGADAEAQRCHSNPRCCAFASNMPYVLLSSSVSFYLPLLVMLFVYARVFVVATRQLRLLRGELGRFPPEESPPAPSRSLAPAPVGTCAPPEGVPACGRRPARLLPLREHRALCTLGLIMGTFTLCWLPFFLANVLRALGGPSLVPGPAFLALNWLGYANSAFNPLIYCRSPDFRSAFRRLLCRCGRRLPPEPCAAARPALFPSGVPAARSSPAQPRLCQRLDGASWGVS
Chain of Alpha-1A adrenergic receptor (P35348 whole entry): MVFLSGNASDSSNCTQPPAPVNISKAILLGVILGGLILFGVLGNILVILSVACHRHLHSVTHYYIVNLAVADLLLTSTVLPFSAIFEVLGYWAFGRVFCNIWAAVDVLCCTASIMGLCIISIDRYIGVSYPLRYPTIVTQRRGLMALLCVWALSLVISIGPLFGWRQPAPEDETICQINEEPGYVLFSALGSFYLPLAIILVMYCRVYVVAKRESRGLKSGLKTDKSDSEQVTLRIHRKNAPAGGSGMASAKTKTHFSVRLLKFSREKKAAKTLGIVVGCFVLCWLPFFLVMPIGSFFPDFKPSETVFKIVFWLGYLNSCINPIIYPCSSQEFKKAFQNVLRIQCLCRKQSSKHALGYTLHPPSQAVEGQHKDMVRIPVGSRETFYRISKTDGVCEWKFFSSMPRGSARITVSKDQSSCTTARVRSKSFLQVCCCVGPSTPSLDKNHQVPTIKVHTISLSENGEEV
Chain of Sodium-dependent noradrenaline transporter (P23975 whole entry): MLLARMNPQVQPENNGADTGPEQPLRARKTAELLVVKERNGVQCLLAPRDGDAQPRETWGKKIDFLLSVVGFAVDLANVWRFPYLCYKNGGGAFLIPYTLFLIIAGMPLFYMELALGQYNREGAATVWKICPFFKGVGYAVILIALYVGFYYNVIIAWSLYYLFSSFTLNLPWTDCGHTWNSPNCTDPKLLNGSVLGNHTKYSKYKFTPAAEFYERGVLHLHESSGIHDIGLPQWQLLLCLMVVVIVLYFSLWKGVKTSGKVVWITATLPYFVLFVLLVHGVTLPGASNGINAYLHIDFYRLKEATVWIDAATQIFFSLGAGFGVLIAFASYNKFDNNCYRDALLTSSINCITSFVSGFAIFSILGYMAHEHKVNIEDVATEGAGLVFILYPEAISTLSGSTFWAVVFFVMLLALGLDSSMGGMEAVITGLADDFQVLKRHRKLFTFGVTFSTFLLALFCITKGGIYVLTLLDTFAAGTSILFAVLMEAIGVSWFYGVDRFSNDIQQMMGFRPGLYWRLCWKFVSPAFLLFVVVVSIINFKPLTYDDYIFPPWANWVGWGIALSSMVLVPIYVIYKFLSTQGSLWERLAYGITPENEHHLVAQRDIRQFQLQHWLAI
Chain of 5-hydroxytryptamine receptor 1B (P28222 whole entry): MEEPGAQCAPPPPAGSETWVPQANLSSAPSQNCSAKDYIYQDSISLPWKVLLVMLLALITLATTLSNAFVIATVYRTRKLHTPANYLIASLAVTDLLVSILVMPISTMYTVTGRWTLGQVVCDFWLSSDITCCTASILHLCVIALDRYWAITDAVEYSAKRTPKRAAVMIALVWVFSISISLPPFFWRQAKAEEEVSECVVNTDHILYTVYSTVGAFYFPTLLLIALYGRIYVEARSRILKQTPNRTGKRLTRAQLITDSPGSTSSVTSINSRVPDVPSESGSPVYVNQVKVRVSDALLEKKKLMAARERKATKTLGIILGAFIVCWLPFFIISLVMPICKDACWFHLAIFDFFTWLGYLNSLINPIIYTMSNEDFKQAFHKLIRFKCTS
Chain of 5-hydroxytryptamine receptor 5A (P47898 whole entry): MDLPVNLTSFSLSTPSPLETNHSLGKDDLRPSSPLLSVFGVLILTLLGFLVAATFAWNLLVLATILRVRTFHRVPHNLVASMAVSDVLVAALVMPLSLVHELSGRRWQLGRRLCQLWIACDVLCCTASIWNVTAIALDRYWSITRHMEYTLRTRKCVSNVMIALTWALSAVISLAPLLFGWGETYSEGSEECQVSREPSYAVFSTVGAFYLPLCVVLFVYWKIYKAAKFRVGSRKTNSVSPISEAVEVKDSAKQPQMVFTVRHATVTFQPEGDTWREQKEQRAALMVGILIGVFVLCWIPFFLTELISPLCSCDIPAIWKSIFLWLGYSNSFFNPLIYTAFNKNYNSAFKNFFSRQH
Chain of Alpha-2A adrenergic receptor (P08913 whole entry): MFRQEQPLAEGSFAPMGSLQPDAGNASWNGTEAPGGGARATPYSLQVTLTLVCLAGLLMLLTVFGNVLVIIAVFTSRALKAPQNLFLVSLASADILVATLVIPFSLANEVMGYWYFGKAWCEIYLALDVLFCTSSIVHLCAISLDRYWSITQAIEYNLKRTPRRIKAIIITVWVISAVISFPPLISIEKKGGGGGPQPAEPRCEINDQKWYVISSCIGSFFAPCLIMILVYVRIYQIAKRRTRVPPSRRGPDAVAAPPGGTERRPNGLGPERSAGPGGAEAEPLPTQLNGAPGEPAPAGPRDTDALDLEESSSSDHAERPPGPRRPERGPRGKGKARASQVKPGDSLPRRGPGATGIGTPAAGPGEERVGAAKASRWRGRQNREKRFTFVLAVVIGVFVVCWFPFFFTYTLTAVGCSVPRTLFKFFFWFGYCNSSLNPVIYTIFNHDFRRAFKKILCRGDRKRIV
Chain of Histamine H2 receptor (P25021 whole entry): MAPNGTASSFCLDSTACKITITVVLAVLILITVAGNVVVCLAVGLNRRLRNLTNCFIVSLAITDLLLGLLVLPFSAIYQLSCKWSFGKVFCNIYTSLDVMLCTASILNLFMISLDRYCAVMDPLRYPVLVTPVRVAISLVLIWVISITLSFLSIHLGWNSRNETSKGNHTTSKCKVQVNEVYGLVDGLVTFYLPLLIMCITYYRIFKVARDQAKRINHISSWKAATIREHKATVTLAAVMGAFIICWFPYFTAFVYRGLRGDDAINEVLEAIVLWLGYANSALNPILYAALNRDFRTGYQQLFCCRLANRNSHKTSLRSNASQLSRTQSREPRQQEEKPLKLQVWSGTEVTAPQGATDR
Chain of Sigma non-opioid intracellular receptor 1 (Q9R0C9 whole entry): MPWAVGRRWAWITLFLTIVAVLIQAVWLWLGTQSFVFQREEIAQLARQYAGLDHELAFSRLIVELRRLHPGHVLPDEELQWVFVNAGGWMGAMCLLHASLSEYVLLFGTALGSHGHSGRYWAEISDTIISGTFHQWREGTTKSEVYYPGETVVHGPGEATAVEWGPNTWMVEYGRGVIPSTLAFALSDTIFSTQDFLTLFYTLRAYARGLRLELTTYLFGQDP
Chain of Histamine H1 receptor (P35367 whole entry): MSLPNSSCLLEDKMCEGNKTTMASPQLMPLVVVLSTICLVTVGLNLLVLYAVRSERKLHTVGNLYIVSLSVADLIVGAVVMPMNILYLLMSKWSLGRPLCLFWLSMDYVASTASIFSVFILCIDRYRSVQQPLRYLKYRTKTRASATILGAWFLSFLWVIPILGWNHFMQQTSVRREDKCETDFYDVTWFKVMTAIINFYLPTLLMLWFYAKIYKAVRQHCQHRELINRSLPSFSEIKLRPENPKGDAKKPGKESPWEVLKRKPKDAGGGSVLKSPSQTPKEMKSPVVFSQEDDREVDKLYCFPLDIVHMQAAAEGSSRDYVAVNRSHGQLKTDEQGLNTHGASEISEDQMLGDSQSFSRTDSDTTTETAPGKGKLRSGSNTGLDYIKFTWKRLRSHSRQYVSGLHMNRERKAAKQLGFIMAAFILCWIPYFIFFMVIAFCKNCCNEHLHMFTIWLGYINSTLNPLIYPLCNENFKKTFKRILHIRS

## CCN1CCCC1CNC(=O)c1cc(S(=O)(=O)CC)c(N)cc1OC (stereo not given) [NSC_2159]
[1]
  Ki: 1.34 µM
[2]
  Ki: > 10 µM
[3]
  Ki: 1.11 µM
[4]
  Ki: > 10 µM
D(4) dopamine receptor
  Ki: 2.37 µM
[5]
  Ki: > 10 µM
[6]
  Ki: > 10 µM
[7]
  Ki: > 10 µM
D(1B) dopamine receptor
  Ki: > 10 µM
Histamine H4 receptor
  Ki: > 10 µM
[8]
  Ki: > 10 µM
[9]
  Ki: > 10 µM
[10]
  Ki: > 10 µM
[11]
  Ki: 1.54 µM
[12]
  Ki: > 10 µM
[13]
  Ki: > 10 µM
[14]
  Ki: > 10 µM
[15]
  Ki: > 10 µM
[16]
  Ki: > 10 µM
[17]
  Ki: > 10 µM
[18]
  Ki: 4.15 µM
[19]
  Ki: > 10 µM
[20]
  Ki: > 10 µM
[21]
  Ki: > 10 µM
Histamine H1 receptor
  Ki: > 10 µM
[22]
  Ki: > 10 µM
Mu-type opioid receptor
  Ki: > 10 µM
[23]
  Ki: > 10 µM
[24]
  Ki: > 10 µM
[25]
  Ki: > 10 µM
[26]
  Ki: 1.74 µM
[27]
  Ki: > 10 µM
Histamine H2 receptor
  Ki: > 10 µM
[28]
  Ki: > 10 µM
D(1A) dopamine receptor
  Ki: > 10 µM
